We go through 2 compounds from patent publication US9469633B2 (dated 2016).

By melting point is commonly meant the temperature of the solid-liquid transition.

Molecules are shown by their SMILES.

As to `O=C1C[C@](c2cc(Cl)cc(Cl)c2)(C(F)(F)F)C(=O)N1`, the melting point fell in the range of 138 to 141 °C.

Turning to `O=C(/C=C(\c1cc(Cl)cc(Cl)c1)C(F)(F)F)c1ccco1`, the melting point was 72 to 76 °C.
